“Also recorded” adds a separate entry of the source.
What was measured:
[1] = test system: lasB′-lacZ fusion; assay: PQS bioassay: activation of lasB′-lacZ fusion in P. aeruginosa strain PAO-R1 (lasR−) (pTS400), β-galactosidase assay; format: cell-based, Pseudomonas aeruginosa
Procedure: To monitor PQS bioactivity, 1-ml cultures of P. aeruginosa strain PAO-R1 (pTS400) were grown for 18 h at 37° C. with shaking (260 rpm; initial optical density was 0.02 at 660 nm) in the presence of culture extract or synthetic PQS. This was followed by measuring activation of the lasB′-lacZ fusion with the use of β-galactosidase (β-gal) assays as described by Miller (19). For culture extracts, bacterial culture fluid was extracted with ethyl acetate and was prepared as described (3). Extracts that were resuspended in ethyl acetate were added to bioassay tubes, and ethyl acetate was removed by drying under a stream of nitrogen. Unless otherwise specified, the amount of material assayed was extracted from 10 ml of culture fluid.

[2] = test system: lasB′-lacZ fusion; settings: strain PAO-R1 (lasR) (pTS400); cited from earlier work
[3] = test system: lasB′-lacZ; assay: lasB′-lacZ bioassay in lasR, rhlR double mutant strain PAO-JP3 (pTS400); format: cell-based, Pseudomonas aeruginosa
Procedure: This molecule was determined to have a 4-quinolone base structure and therefore has been designated as the Pseudomonas quinolone signal (PQS). Furthermore, exogenously added PQS induced a lasB′-lacZ fusion in the P. aeruginosa lasR mutant, strain PAO-R1, containing the plasmid pTS400. […] Despite the ability of PQS to activate lasB′-lacZ in the absence of lasR, the production of PQS required an active LasR protein. […] It was also determined that at least RhlR was required for PQS to act as a signal because lasB′-lacZ was not induced by PQS in the lasR, rhlR double mutant, strain PAO-JP3, containing the plasmid pTS400.

[4] = test system: RhlR; assay: E. coli bioassay: strain DH5a (pECP62.5) with lasB′-lacZ reporter and inducible tacp-rhlR; format: cell-based, Escherichia coli; settings: E. coli strain DH5a (pECP62.5), tacp-rhlR induced
Procedure: Using this information, an experiment was conducted to define the requirements for signal activity by developing an E. coli bioassay for the signal. E. coli strain DH5a was transformed with plasmid pECP62.5, which contained the lasB′-lacZ reporter and the inducible tacp-rhlR gene. If the signal worked directly through RhlR, then the induction of tacp-rhlR in the presence of exogenously added signal should result in the activation of lasB′-lacZ in E. coli strain DH5a (pECP62.5).

[5] = test system: E. coli; assay: anti-E. coli activity; format: cell-based
[6] = test system: Staphylococcus aureus; assay: anti-Staphylococcus aureus activity; format: cell-based

SMILES	induction of lasB′-lacZ / activity in the PQS bioassay (in words) ([1]; strain PAO-R1 (lasR−) (pTS400))	response of lasB′-lacZ fusion to exogenously added autoinducer (in words) [2]	other results
CCCCCCCc1cc(O)c2ccccc2[n+]1[O-] [2-heptyl-4-hydroxy-quinoline-N-oxide, reference compound]	not active	–	–
CCCCCCCC1C(=O)c2ccccc2N=C1O (stereo not shown) [2-hydroxy-3-heptyl-4-quinolone, reference compound]	not active	–	–
CCCCCCCCCC(=O)CC(=O)N[C@H]1CCOC1=O [3-oxo-C12-HSL, N-3-(oxododecanoyl)-L-homoserine lactone, reference compound]	could not be mimicked	unresponsive	–
CCCC(=O)N[C@H]1CCOC1=O [C4-HSL, N-butanoyl-L-homoserine lactone, reference compound]	could not be mimicked	mildly activated	–
CCCCCCCc1[nH]c2ccccc2c(=O)c1O [PQS, 2-heptyl-3-hydroxy-4-quinolone]	active; also recorded: dose-dependent induction	–	activation of the lasB promoter (β-gal activity) ([1]; 5 mM synthetic PQS, strain PAO-R1 (lasR−) (pTS400), FIG. 6): 148 Miller units; EC50 ([1]; Pseudomonas aeruginosa, read-out: amount required to activate the bioassay to half of its maximum activity): ~30 µM; induction of lasB′-lacZ (in words) [3]: not induced; PQS response, lasB′-lacZ, in recombinant E. coli expressing RhlR (in words) [4]: not replicated; anti-E. coli activity [5]: does not have detectable; anti-Staphylococcus aureus activity [6]: does not have detectable

From patent publication US7442798B2, “Autoinducer molecules and uses therefor” (priority 2000, dated 2008)
